According to patent US5310884A (Merck Frosst Canada, Inc., priority 1992, dated 1994):

Experiments:
[1] = test system: 45 kDa guinea-pig lung membrane protein; experiment: Deglycosylation of the photoaffinity labelled 45 kDa guinea-pig lung membrane protein by N-Glycosidase F; format: biochemical; conditions: 1 μM LTD4
Experimental: FIG. 10. […] Following photolysis the guinea-pig lung membranes were recovered from 1 ml sample aliquots by centrifugation at 150,000×g for 15 min at 4° C. The membranes were then solubilized in 20 μl of incubation buffer (20 mM NaHPO4, pH 7.4, containing 10 mM EDTA and 1 % (v/v) 2-mercaptoethanol) containing 1 % (w/v) SDS. The solubilized preparation was then diluted with incubation buffer to a final volume of 200 μl containing 1 % (w/v) octylglucoside and 0-60 U / ml of recombinant N-Glycosidase F, and incubated overnight at room temperature. Samples were further diluted in 3-fold concentrated SDS sample buffer and analysed by SDS-PAGE, followed by autoradiography. […] The migration of the molecular weight standards is indicated on the left.
In every case the only detectable product was the 40 kDa protein. […] This is also supported by qualitative evidence since the radiolabelled precursor migrated as a diffuse band during SDS-PAGE, behaviour typical of glycoproteins, while the deglycosylated product migrated as a more focused band.

[2] = molecular target: T1, LTD4 receptor (guinea-pig lung membranes) (Cavia porcellus, UniProt Q2NNR5); experiment: Saturation binding to guinea-pig lung membranes, Scatchard plot analysis; set-up: Guinea pigs (male; 350 g) were sacrificed by cervical dislocation and the lung tissues removed; from tissue; host or cells: guinea-pig lung (primarily parenchyma), sucrose-gradient membrane fraction
T1 sequence (Q2NNR5 1-340): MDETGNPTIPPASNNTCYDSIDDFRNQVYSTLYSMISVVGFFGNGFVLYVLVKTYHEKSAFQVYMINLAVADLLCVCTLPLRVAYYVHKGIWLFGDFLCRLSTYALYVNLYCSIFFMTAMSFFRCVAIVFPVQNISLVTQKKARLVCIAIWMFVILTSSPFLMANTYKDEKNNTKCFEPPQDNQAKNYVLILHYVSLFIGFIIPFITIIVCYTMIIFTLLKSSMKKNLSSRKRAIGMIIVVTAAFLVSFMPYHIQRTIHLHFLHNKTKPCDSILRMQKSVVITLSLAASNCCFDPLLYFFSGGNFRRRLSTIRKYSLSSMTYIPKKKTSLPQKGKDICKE

[3] = RP-HPLC stability of [125I]Azido-LTD4 under binding assay conditions with guinea-pig lung membrane; format: in vitro ADME; conditions: 60 min
Experimental: RP-HPLC was conducted to assess the stability of [^125 I]Azido-LTD4 under binding assay conditions. […] Following a 60 min incubation at room temperature, samples were centrifuged at 150,000×g for 15 min at 4° C. The supernatant (unbound radioligand) was removed and the membrane pellet was resuspended by sonication in 150 μl of RP-HPLC solvent ([…] (v/v) MeOH:H2O:HOAc containing 0.01% 2-mercaptoethanol and 0.5 mM EDTA). The samples were centrifuged at 150,000×g for 15 min at 4° C. and the supernatent removed (bound radioligand). Bound and unbound radioligand fractions (100 μl) were analysed by RP-HPLC using a Nova Pac C18 column (0.39 ×15 cm; Waters Assoc.) eluted isocratically at a flow rate of 1 ml/min with RP-HPLC solvent. The profile of iodinated material from bound and unbound radioligand samples was determined by on-line solid scintillation gamma counting (Berthold HPLC radioactivity monitor LB 506 C1). [^125 I]Azido-LTD4 was identified by […] of non-radioactive [^127 I]Azido-LTD4 monitored by optical density at 280 nm.
FIGS. 2(A) and 2(B) RP-HPLC analysis of [^125 I]Azido-LTD4 stability. RP-HPLC was used to assess the stability of [^125 I]Azido-LDT4 under the conditions routinely employed for binding assays as described in the Methods.

[4] = test system: 66.2 kDa protein (guinea-pig serum albumin); experiment: Photoaffinity labelling of 66.2 kDa protein and immunoprecipitation with rabbit anti-guinea-pig albumin antisera; format: binding; conditions: lung membranes and guinea-pig serum
Experimental: Samples were incubated for 60 min at room temperature. Aliquots (2×500 μl) were then removed and the bound [^125 I]Azido-LTD4 quantified as described for the filtration binding assays. The residual samples were then transferred to 25 mm diameter cluster plate well for photolysis. The cluster plates were placed on aluminium blocks, pre-cooled to -20° C., and illuminated from above with a 40 W ultraviolet light source (Phillips, γmax =350 nm) at a distance of 10 cm for 2 min. The guinea-pig lung membranes were then recovered from 1 ml sample aliquots by centrifugation at 150,000×g for 15 min at 4° C. and solubilized in sodium dodecyl sulphate polyacrylamide gel electrophoresis (SDS-PAGE) sample buffer prior to resolution of the proteins by SDS-PAGE (Laemmli, 1970). Protein bands were visualized by Coomassie Blue staining while radiolabelled proteins were identified by autoradiography of dried gels and quantified by laser densitometry (Molecular Dynamics, ImageQuant).
The TXIP solubilized samples were centrifuged at 14,000×g for 15 min at 4° C. and the supernatant mixed directly with 50 μl of non-immune rabbit serum or RAGpAlb premixed for 15 min at 4° C. with 80 μl of protein A-Sepharose (50 mg/ml in TXIP). […] The final immunocomplex was dissociated by resuspension in SDS-PAGE sample buffer for 5 min at 95° C. and analysed by SDS-PAGE and autoradiography of the dried gels. […]

[5] = molecular target: T1, LTD4 receptor (guinea-pig lung membranes); experiment: Rates of association and dissociation of radioligand binding to guinea-pig lung membranes; set-up: Guinea pigs (male; from tissue; host or cells: guinea-pig lung (primarily parenchyma), sucrose-gradient membrane fraction
Experimental: FIG. 3. […] Aliquots (500 μl) were removed and filtered at the required time intervals.

[6] = molecular target: T1, LTD4 receptor (guinea-pig lung membranes); conditions: 60 pM radioligand, 20-30 μg membrane protein
Experimental: Guinea pigs (male; 350 g) were sacrificed by cervical dislocation and the lung tissues removed. All subsequent procedures were performed either on ice or at 4° C. Connective tissue, trachea, large blood vessels and major airways were dissected away and the remaining lung tissue (primarily parenchyma) was finely minced prior to homogenisation in 10 vol of 10 mM HEPES/KOH pH 7.4, containing 0.25 M sucrose, 2 mM EDTA, 2 mM phenylmethylsulphonyl fluoride, 10 μg/ml pepstatin, 10 μg/ml leupeptin and 10 μM E-64, using 5 s bursts of a polytron (Brinkman Instruments). The homogenate was subjected to differential centrifugation at 1000×g for 10 min, 10,000×g for 10 min and 100,000×g for 40 min. The resulting 100,000×g pellets were resuspended in 10 mM HEPES/KOH pH 7.4, containing 10% (w/v) sucrose, at a final protein concentration of 1-2 mg/ml. This tissue suspension was carefully layered over 10 mM HEPES/KOH pH 7.4 containing 40% (w/v) sucrose in a 3:2 (v/v) ratio. The discontinuous sucrose gradient was centrifuged at 83,000×g for 60 min. The membrane fraction located at the interface of the sucrose gradient layers was recovered, diluted 10-fold in 10 mM HEPES/KOH pH 7.4 and further centrifuged at 150,000×g for 40 min. The final membrane pellets were resuspended in 10 mM HEPES/KOH pH 7.4 at a protein concentration of 2-4 mg/ml and stored at […].
Filters were then washed with 16 ml of 10 mM HEPES/KOH, pH 7.4 containing 0.01% (w/v) bovine serum albumin, at 4° C.
FIG. 4. […] Radiolabelled proteins were resolved by SDS-PAGE and visualized by autoradiography. […] In addition, photoaffinity labelled membranes were subjected to immunoprecipitation with RAGpAlb (Lane C) and non-immune rabbit serum (Lane D), as described in the Methods. The migration of molecular weight standards is indicated on the left. FIGS. 5(A)-5(C). […] Results are expressed as percentage of maximum specific binding as a function of CaCl2 concentration. […] Only the results for total binding are shown.
Results are expressed as percentage of maximum specific binding as a function of nucleotide concentration. […] Only the results for total binding are shown.
Results are expressed as percentage of maximum specific binding as a function of cation concentration. […] Only the results for total binding are shown.

Row | presence of radiolabelled precursor and product after pretreatment with LTD4 [1] | maximum number of binding sites (Bmax) ([2]; Scatchard, single site) [fmol/mg protein] | Kd ([2]; read-out: equilibrium dissociation constant (KD)) [nM] | stability of radioligand ([3]; room temperature, lung membrane, pH 7.4) | recovery of radioactive material following RP-HPLC ([3]; bound and unbound fractions after incubation with lung membrane, 60 pM) | radiolabelling of 66.2 kDa protein (selectivity) [4] | dissociation of binding by 1 μM LTD4 ([5]; 1 μM LTD4, additional 50 min incubation) | association: time to reach equilibrium ([5]; guinea-pig lung membranes) [min] | fraction of added radioligand bound to guinea-pig lung membranes [6] | Compound | dissociation of binding by 1 μM LTD4 with 10 μM GTPγS ([5]; to non-specific levels)
1 | not present | – | – | – | – | – | – | – | – | CCCCC/C=C\C\C=C/C=C/C=C/[C@@H](SC[C@H](N)C(=O)NCC(=O)O)[C@@H](O)CCCC(=O)O [LTD4] | –
2 | – | 1000 | 0.2 | completely stable | approximately 100% | non-selectively labelled | approximately 50% | 60 | 10-20% | CCCCC/C=C\C\C=C/C=C/C=C/[C@@H](SC[C@H](NC(=O)CCCCCNC(=O)c1cc([125I])c(N=[N+]=[N-])cc1O)C(=O)NCC(=O)O)[C@@H](O)CCCC(=O)O [[^125 I]Azido-LTD4] | almost instantaneous and complete dissociation
